Assay results reported in patent US9688678B2, “Oxindole compounds carrying a nitrogen-bound spiro substituent and use thereof for treating vasopressin-related diseases” (AbbVie Deutschland GmbH & Co. KG, priority 2014, dated 2017).

Columns and labels:
[1] = target: human vasopressin V1b receptor (Homo sapiens (Human), UniProt P47901); experiment: Vasopressin V1b receptor binding assay; conditions: membranes from CHO-K1 cells, displacement of 3H-AVP
Procedure: The test substances were dissolved in a concentration of 5 mM in 100% DMSO and further diluted to 5×10^−4 M to 5×10^−9 M. These serial DMSO predilutions were diluted 1:10 with assay buffer. The substance concentration was further diluted 1:5 in the assay mixture resulting in 2% DMSO in the mixture. All dilutions were performed in a Biomek NX automation workstation (Beckman)
The membrane pellet was again homogenized and centrifuged as described and subsequently taken up in 50 mM Tris-HCl, pH 7.4, homogenized and stored in aliquots frozen in liquid nitrogen at −190° C.
(§1) The incubation buffer was: 50 mM Tris, 10 mM MgCl2, 0.1% BSA, pH 7.4.
All determinations were carried out as duplicate determinations. […] The liquid scintillation measurement took place in a Microbeta TriLux 12 (Wallac). Analysis:
(§2) The binding parameters were calculated by nonlinear regression in SAS.

[2] = target: human vasopressin V1a receptor (Homo sapiens (Human), UniProt P37288); experiment: Vasopressin V1a receptor binding assay; conditions: selectivity quotient, human V1a vs human V1b receptor
Procedure: The test substances were dissolved in a concentration of 5 mM M in DMSO. Further dilution of these DMSO solutions took place as described for V1b.
The membrane pellet was again homogenized in a High-Pressure-Homogenizer, Polytec 50K at 1500 PSI (Heinemann, Germany) and subsequently taken up in 50 mM Tris-HCl, pH 7.4, homogenized and stored in aliquots frozen in liquid nitrogen at −190° C.
as §1
Duplicate determinations were carried out.
After incubation (60 minutes at room temperature), the samples were processed as described for V1b.
as §2

human vasopressin V1a receptor, sequence (P37288 whole entry): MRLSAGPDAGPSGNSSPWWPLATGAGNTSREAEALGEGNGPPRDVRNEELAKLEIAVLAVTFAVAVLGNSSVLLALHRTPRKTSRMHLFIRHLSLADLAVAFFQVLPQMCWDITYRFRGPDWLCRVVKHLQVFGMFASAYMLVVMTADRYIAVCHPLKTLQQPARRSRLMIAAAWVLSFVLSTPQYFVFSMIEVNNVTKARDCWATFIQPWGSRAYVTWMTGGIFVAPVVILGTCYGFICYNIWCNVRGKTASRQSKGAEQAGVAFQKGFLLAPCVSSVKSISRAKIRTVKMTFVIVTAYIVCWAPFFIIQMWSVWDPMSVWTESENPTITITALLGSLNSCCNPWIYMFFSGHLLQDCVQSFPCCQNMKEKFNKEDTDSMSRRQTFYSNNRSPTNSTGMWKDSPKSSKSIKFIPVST
human vasopressin V1b receptor, sequence (P47901 whole entry): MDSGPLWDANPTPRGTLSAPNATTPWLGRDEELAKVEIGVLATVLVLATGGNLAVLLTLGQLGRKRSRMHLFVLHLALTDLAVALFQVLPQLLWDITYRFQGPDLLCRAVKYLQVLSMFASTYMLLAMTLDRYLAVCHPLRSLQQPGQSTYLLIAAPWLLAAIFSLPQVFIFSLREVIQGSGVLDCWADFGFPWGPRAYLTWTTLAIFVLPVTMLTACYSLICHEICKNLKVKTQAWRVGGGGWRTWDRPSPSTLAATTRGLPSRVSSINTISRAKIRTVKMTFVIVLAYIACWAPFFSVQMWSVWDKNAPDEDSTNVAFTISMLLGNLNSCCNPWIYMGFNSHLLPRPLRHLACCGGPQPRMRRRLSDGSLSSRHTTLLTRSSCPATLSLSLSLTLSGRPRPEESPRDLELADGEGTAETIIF

Row | Ki [1] [nM] | Ki(h-V1a)/ Ki(h-V1b) [2] | SMILES
1 | < 1 | +++ (>75) | CCOc1ccc(OC)cc1C1(N2CC3(CC(N4CCN(C)CC4)C3)C2)C(=O)N(S(=O)(=O)c2ccc(OC)cn2)c2ccc(C#N)cc21 (single isomer, unassigned; (+)) [Example 17B, (+)-3-(2-ethoxy-5-methoxy-phenyl)-1-[(5-methoxy-2-pyridyl)sulfonyl]-3-[2-(4-methylpiperazin-1-yl)-6-azaspiro[3.3]heptan-6-yl]-2-oxo-indoline-5-carbonitrile]
2 | < 1 | + (10-<25) | COc1ccc(S(=O)(=O)N2C(=O)C(c3ccccc3OC)(N3CC4(CN(C5CCN(C)CC5)C4)C3)c3cc(C#N)ccc32)nc1 (single isomer, unassigned; (+)) [Example 18A, (+)-3-(2-methoxyphenyl)-1-[(5-methoxy-2-pyridyl)sulfonyl]-3-[2-(1-methyl-4-piperidyl)-2,6-diazaspiro[3.3]heptan-6-yl]-2-oxo-indoline-5-carbonitrile]
3 | 10 to 100 | +++ (>75) | CCOc1ccc(OC)cc1C1(N2CC3(CN(C4CCN(C)CC4)C3)C2)C(=O)N(S(=O)(=O)c2ccc(OC)cn2)c2ccc(C#N)cc21 (single isomer, unassigned; (-)) [Example 1B, (−)-3-(2-ethoxy-5-methoxy-phenyl)-1-[(5-methoxy-2-pyridyl)sulfonyl]-3-[2-(1-methyl-4-piperidyl)-2,6-diazaspiro[3.3]heptan-6-yl]-2-oxo-indoline-5-carbonitrile]

Continued, molecule first:

Row | SMILES | Ki [1] [nM] | Ki(h-V1a)/ Ki(h-V1b) [2]
4 | COc1ccc(S(=O)(=O)N2C(=O)C(c3ccccc3OC)(N3CC4(CN(C5CCN(C6COC6)CC5)C4)C3)c3cc(C#N)ccc32)nc1 (single isomer, unassigned; (+)) [Example 23, (+)-3-(2-methoxyphenyl)-1-[(5-methoxy-2-pyridyl)sulfonyl]-3-[2-[1-(oxetan-3-yl)-4-piperidyl]-2,6-diazaspiro[3.3]heptan-6-yl]-2-oxo-indoline-5-carbonitrile] | 1 to 10 | + (10-<25)
5 | CCOc1ccc(OC)cc1C1(N2CC3(CN(c4ccnc(C)c4)C3)C2)C(=O)N(S(=O)(=O)c2ccc(OC)cc2OC)c2ccc(C#N)cc21 (single isomer, unassigned; (+)) [Example 24, (+)-1-(2,4-dimethoxyphenyl)sulfonyl-3-(2-ethoxy-5-methoxy-phenyl)-3-[2-(2-methyl-4-pyridyl)-2,6-diazaspiro[3.3]heptan-6-yl]-2-oxo-indoline-5-carbonitrile] | 10 to 100 | +++ (>75)
6 | CCOc1ccc(OC)cc1C1(N2CC3(CN(c4ccnc(C)c4)C3)C2)C(=O)N(S(=O)(=O)c2ccc(OC)cn2)c2ccc(C#N)cc21 (single isomer, unassigned; (+)) [Example 25, (+)-3-(2-ethoxy-5-methoxy-phenyl)-1-[(5-methoxy-2-pyridyl)sulfonyl]-3-[2-(2-methyl-4-pyridyl)-2,6-diazaspiro[3.3]heptan-6-yl]-2-oxo-indoline-5-carbonitrile] | < 1 | +++ (>75)
7 | CCOc1ccc(OC)cc1[C@]1(N2CC3(CN(C4CCN(C)CC4)C3)C2)C(=O)N(S(=O)(=O)c2ccc(OC)nc2)c2ccc(C#N)cc21 [Example 31, (3S)-3-(2-ethoxy-5-methoxy-phenyl)-1-[(6-methoxy-3-pyridyl)sulfonyl]-3-[2-(1-methyl-4-piperidyl)-2,6-diazaspiro[3.3]heptan-6-yl]-2-oxo-indoline-5-carbonitrile] | 1 to 10 | + (10-<25)
8 | CCOc1ccc(OC)cc1[C@]1(N2CC3(CN(C4CCN(C)CC4)C3)C2)C(=O)N(S(=O)(=O)c2ccccn2)c2ccc(C#N)cc21 [Example 33, (3S)-3-(2-ethoxy-5-methoxy-phenyl)-3-[2-(1-methyl-4-piperidyl)-2,6-diazaspiro[3.3]heptan-6-yl]-2-oxo-1-(2-pyridylsulfonyl)indoline-5-carbonitrile] | 1 to 10 | +++ (>75)
9 | CCOc1ccc(OC)cc1[C@]1(N2CC3(CN(C4CCN(C)CC4)C3)C2)C(=O)N(S(=O)(=O)c2ccc(Cl)cn2)c2ccc(C#N)cc21 [Example 34, (3S)-1-[(5-chloro-2-pyridyl)sulfonyl]-3-(2-ethoxy-5-methoxy-phenyl)-3-[2-(1-methyl-4-piperidyl)-2,6-diazaspiro[3.3]heptan-6-yl]-2-oxo-indoline-5-carbonitrile] | < 1 | +++ (>75)
